According to patent publication US11090288B2, “Pyrazole derivatives and their uses thereof” (Canadian Blood Services, priority 2013, dated 2021):

The molecules below were run on monocytes (phagocytosis of anti-D opsonized RBCs) (assay: Monocyte monolayer assay (MMA), phagocytosis of anti-D opsonized RBCs). Details: Monocyte; percent inhibition of phagocytosis of anti-D opsonized RBCs by monocytes; compound at 5 micromolar.
Type: cell-based
Method: Monocyte monolayer assay. The monocyte monolayer assay (MMA) was performed as previously described (Rampersad, G. C.; Suck, G; Sakac, D; Fahim, S; Foo, A; Denomme, G. A.; Langler, R. F.; Branch, D. R. Transfusion 2005, 45, 384; Foo, A. H.; Fletcher, S. P.; Langler, R. F.; Porter, C. H.; Branch, D. R. Transfusion 2007, 47, 290; Branch, D. R.; Gallagher, M. T.; Mison, A. P.; Sy Siok Hian, A. L.; Petz, L. D. Br. J. Haematol. 1984, 56, 19; Gallagher, M. T.; Branch, D. R.; Mison, A.; Petz, L. D. Exp. Hematol. 1983, 11, 82) in the above 4 references with slight modification. Briefly, peripheral blood mononuclear cells (PBMC) containing monocytes were isolated by ficoll-paque density gradient centrifugation and incubated overnight at 37° C. under 5% CO2 atmosphere. PBMCs were then layered onto chamber slides (Labtek, Thermo Scienctific) and incubated at 37° C., 5% CO2 for 1 hr to allow the monocytes to adhere. Following an aspiration of non-adherent cells, compounds were added at various concentrations to the adhered cells and further incubated for an additional hour. The compounds were aspirated and the monocytes treated with anti-D opsonized RBCs at the aforementioned incubation conditions for an additional 2 hrs. The slides were analyzed under phase microscopy for phagocytosis. A minimum of 100 monocytes were counted per sample and the number of observed RBCs that were phagocytosed were counted and normalized to a positive control to generate a phagocytosis index. Percent inhibition of phagocytosis was calculated as the percentage of control phagocytosis (phagocytosis of opsonized RBCs with compound diluent only).

Row | SMILES | inhibition at 5 µM [%]
1 | Cc1cc(OCC2CCCN2Cc2ccccc2)n(-c2ccccc2)n1 (stereo not shown) [Compound 53, 5-((1-Benzylpyrrolidin-2-yl)methoxy)-3-methyl-1-phenyl-1H-pyrazole] | 5 to 15
2 | Cc1cc(COc2cc(C)nn2-c2ccc([N+](=O)[O-])cc2)n(-c2ccccc2)n1 [Compound 28, 3-Methyl-5-({[3-methyl-1-(4-nitrophenyl)-1H-pyrazol-5-yl]oxy}methyl)-1-phenyl-1H-pyrazole] | 2 to 16
3 | Cc1cc(OCCOc2cc(C)nn2-c2ccccc2)n(-c2ccccc2)n1 [Compound 20, 1,2-Bis(3-methyl-1-phenyl-1H-pyrazol-5-yloxy)ethane] | 4 to 14
4 | Cc1cc(OCc2cc(C)nn2-c2ccccc2)n(CC2CCCCC2)n1 [Compound 37, 1-(Cyclohexylmethyl)-3-methyl-5-((3-methyl-1-phenyl-1H-pyrazol-5-yl)methoxy)-1H-pyrazole] | 33 to 45
5 | Cc1cc(COc2cc(C)nn2C2CCCC2)n(-c2ccccc2)n1 [Compound 41, 1-Cyclopentyl-3-methyl-5-((3-methyl-1-phenyl-1H-pyrazol-5-yl)methoxy)-1H-pyrazole] | ≤ 17
6 | Cc1cc(CCc2cc(C)nn2-c2ccccc2)n(-c2ccccc2)n1 [Compound 14, 1,2-Bis(3-methyl-1-phenyl-1H-pyrazol-5-yl)ethane] | ≤ 16
7 | Cc1cc(CNCc2cc(C)nn2-c2ccccc2)n(-c2ccccc2)n1 [Compound 18, Bis((3-methyl-1-phenyl-1H-pyrazol-5-yl)methyl)amine] | 20
8 | Cc1cc(COc2cc(C)nn2-c2ccccc2)n(-c2ccccc2)n1 [Compound 15, 3-Methyl-5-((3-methyl-1-phenyl-1H-pyrazol-5-yl)methoxy)-1-phenyl-1H-pyrazole] | ≤ 14
9 | Cc1cc(Oc2c(N)c(C)nn2-c2ccccc2)n(-c2ccccc2)n1 [Compound 24, 3-Methyl-5-(3-methyl-1-phenyl-1H-pyrazol-5-yloxy)-1-phenyl-1H-pyrazol-4-amine] | 2
10 | Cc1cc(OCc2cc(C)nn2-c2ccccc2)n(CC(=O)O)n1 [Compound 48, 2-(3-Methyl-5-((3-methyl-1-phenyl-1H-pyrazol-5-yl)methoxy)-1H-pyrazol-1-yl)acetic acid] | 4 to 10
11 | Cc1cc(O)n(Cc2cc(C)nn2-c2ccccc2)n1 [Compound 50, 3-methyl-1-((3-methyl-1-phenyl-1H-pyrazol-5-yl)methyl)-1H-pyrazol-5-ol] | 27 to 58
12 | Cc1cc(OCc2cc(C)nn2-c2ccccc2)n(CCN)n1 [Compound 47, 2-(3-Methyl-5-((3-methyl-1-phenyl-1H-pyrazol-5-yl)methoxy)-1H-pyrazol-1-yl)ethanamine] | 5 to 33
13 | Cc1cc(Oc2c([N+](=O)[O-])c(C)nn2-c2ccccc2)n(-c2ccccc2)n1 [Compound 23, 3-Methyl-5-(3-methyl-1-phenyl-1H-pyrazol-5-yloxy)-4-nitro-1-phenyl-1H-pyrazole] | 12

Same assay, conditions: percent inhibition of phagocytosis of anti-D opsonized RBCs by monocytes; compound at 5 micromolar

Row | SMILES | Activity @ 5 micromolar (%)
14 | Cc1cc(OCc2cc(C)nn2-c2ccccc2)[nH]n1 [Compound 49] | 6-26%

What follows are molecules tested on preventive mouse model of ITP (anti-platelet antibody, rat anti-mouse CD41) (assay: Preventive mouse model of ITP, compound given IP or IV). Details: i.p. (40 mg/kg) or i.v. (16 mg/kg); anti-CD41 1.4 μg daily from Day 0; FIG. 1.
Type: in vivo, Mice (BALB/c)
Method: Mice (BALB/c) were treated with an anti-platelet antibody (rat anti-mouse CD41 using 1.4 μg constant dose) daily starting at Day 0 to induce ITP. Platelet counts at Day 2, when a nadir is reached in this model, are shown for untreated mice, mice treated with anti-CD41 only, mice treated with IVIG (1 g/kg) (positive control for ITP amelioration), and mice treated with Compound 50 i.p. (40 mg/kg) or i.v. (16 mg/kg). Treatment groups: n=5 mice per group; control: n=3. Statistical significance by one-way ANOVA with Dunnett posthoc test and is indicated: ** p<0.01; *** p<0.001.

Row | SMILES | Amelioration of ITP (platelet counts at Day 2)
15 | Cc1cc(O)n(Cc2cc(C)nn2-c2ccccc2)n1 [Compound 50, 3-methyl-1-((3-methyl-1-phenyl-1H-pyrazol-5-yl)methyl)-1H-pyrazol-5-ol] | ameliorates ITP

What follows are molecules tested on preventive mouse model of ITP (anti-platelet antibody, rat anti-mouse CD41) (assay: Preventive mouse model of ITP, compound given subcutaneously). Details: SC twice per day (2 sites, 2 mg/ml) starting at Day 0; anti-CD41 1.4 μg daily; FIG. 2.
Type: in vivo, Mice
Method: Mice were treated as above with an anti-platelet antibody (rat anti-mouse CD41 using 1.4 μg constant dose) daily starting at Day 0 to induce ITP. Compound 50 was given SC twice per day (2 sites, 2 mg/ml) starting at Day 0. IVIg (1 g/kg) was given on Day 2 for comparison as this is considered the therapeutic dose of IVIg. Treatment groups: n=5 mice per group; control (untreated): n=3. Statistical significance by one-way ANOVA with Dunnett posthoc test and is indicated: ** p<0.01; *** p<0.001.

Row | SMILES | Amelioration of ITP
16 | Cc1cc(O)n(Cc2cc(C)nn2-c2ccccc2)n1 [Compound 50, 3-methyl-1-((3-methyl-1-phenyl-1H-pyrazol-5-yl)methyl)-1H-pyrazol-5-ol] | efficacious for the amelioration of ITP
